Drawing on PMC4774911, “Biochemical Screening of Five Protein Kinases from Plasmodium falciparum against 14,000 Cell-Active Compounds” (PLoS ONE, 2016), this text covers Kd for 3 compounds.

Values joined by “and” are separate entries in the source; they are usually repeats but may differ in a detail not shown here. Equal values may be shown once.

Targets include CAMKK2 (Homo sapiens, UniProt Q96RR4); CSK (Homo sapiens, UniProt P41240); FYN (Homo sapiens, UniProt P06241); PCTK2 (Homo sapiens, UniProt Q00537).
Holding throughout (assay): biochemical
Holding throughout (set-up): endogenous in cells; host or cells: K562 cell extract; species or system K562 (extract); replicate k of n = 2 (each experiment ID is one independent experiment; two experiment IDs per compound)
Holding throughout (settings): read-out: KDapp

The next test addresses T1, ACVR1B (Homo sapiens, UniProt P36896).
T1 sequence (P36896 1-505): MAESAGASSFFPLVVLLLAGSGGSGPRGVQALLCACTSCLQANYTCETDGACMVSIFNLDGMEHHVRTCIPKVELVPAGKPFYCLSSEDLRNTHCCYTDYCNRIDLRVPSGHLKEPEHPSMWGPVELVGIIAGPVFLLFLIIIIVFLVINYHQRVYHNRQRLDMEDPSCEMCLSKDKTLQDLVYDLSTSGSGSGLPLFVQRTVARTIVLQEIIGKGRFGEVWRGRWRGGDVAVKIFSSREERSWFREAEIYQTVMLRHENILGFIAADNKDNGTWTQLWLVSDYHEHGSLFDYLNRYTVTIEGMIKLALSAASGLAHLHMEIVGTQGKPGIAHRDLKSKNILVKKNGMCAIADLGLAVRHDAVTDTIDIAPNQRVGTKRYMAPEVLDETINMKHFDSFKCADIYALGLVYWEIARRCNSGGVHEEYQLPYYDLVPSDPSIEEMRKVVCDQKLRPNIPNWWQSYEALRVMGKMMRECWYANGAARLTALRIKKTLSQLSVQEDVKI

Another test has as its target T2, LATS1 (Homo sapiens, UniProt O95835).
T2 sequence (O95835 1-1130): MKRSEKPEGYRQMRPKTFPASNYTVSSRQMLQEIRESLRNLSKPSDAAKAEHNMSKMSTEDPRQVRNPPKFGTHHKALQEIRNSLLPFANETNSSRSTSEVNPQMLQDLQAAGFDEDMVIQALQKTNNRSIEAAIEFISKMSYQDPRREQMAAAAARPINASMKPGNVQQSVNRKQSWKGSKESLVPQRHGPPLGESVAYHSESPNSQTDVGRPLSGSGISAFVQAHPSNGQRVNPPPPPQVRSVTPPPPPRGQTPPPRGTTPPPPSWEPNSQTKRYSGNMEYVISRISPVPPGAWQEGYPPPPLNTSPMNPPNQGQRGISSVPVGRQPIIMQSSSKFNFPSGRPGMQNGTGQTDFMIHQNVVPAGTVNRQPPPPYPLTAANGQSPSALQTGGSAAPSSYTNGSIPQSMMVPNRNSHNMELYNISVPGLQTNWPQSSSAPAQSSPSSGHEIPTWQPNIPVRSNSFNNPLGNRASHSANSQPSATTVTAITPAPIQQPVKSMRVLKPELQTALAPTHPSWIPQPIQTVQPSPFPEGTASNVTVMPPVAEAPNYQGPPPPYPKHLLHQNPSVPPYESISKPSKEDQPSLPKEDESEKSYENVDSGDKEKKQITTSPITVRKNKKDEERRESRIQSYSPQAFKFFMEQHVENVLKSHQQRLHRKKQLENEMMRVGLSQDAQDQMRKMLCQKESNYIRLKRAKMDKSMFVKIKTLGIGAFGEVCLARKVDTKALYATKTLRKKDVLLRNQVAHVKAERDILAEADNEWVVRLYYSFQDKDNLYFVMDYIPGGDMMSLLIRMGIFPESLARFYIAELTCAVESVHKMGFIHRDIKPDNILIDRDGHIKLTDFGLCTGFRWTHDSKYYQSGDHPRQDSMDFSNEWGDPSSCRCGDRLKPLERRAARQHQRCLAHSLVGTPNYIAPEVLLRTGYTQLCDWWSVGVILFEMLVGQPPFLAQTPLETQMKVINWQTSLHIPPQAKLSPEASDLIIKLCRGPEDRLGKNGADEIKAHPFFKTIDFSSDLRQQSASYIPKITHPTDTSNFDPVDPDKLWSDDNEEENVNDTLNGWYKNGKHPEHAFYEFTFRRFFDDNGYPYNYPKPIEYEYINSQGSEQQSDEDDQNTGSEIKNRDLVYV

For the next test, the target named is T3, NEK2 (Homo sapiens, UniProt P51955).
T3 sequence (P51955 1-445): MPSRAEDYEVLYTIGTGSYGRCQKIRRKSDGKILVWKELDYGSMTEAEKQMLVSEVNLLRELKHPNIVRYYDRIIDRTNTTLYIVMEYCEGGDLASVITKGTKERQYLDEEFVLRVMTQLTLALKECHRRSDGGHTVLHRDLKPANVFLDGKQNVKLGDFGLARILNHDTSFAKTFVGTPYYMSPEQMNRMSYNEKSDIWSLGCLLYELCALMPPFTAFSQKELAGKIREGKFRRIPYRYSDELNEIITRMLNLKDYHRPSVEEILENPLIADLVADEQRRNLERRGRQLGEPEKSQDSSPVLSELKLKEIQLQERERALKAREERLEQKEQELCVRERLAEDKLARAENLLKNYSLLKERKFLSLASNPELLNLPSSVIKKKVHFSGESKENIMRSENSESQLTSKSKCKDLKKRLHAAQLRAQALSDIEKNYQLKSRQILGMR

Chain of CAMKK2 (Q96RR4 whole entry): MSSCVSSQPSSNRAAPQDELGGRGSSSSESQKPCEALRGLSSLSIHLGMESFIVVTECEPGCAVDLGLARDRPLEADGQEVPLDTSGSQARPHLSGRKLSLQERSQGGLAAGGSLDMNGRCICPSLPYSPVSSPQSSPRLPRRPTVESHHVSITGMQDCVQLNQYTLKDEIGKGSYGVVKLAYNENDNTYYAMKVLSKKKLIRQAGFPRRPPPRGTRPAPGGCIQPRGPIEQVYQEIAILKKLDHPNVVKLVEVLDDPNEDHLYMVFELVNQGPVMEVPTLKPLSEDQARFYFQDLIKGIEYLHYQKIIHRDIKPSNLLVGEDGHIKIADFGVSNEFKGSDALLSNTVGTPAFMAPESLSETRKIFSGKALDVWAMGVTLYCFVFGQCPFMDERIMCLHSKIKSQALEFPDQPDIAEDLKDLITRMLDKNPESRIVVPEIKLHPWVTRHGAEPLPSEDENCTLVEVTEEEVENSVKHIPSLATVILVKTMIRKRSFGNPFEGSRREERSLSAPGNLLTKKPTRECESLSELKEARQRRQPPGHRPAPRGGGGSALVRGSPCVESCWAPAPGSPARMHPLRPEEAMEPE
Chain of FYN (P06241 whole entry): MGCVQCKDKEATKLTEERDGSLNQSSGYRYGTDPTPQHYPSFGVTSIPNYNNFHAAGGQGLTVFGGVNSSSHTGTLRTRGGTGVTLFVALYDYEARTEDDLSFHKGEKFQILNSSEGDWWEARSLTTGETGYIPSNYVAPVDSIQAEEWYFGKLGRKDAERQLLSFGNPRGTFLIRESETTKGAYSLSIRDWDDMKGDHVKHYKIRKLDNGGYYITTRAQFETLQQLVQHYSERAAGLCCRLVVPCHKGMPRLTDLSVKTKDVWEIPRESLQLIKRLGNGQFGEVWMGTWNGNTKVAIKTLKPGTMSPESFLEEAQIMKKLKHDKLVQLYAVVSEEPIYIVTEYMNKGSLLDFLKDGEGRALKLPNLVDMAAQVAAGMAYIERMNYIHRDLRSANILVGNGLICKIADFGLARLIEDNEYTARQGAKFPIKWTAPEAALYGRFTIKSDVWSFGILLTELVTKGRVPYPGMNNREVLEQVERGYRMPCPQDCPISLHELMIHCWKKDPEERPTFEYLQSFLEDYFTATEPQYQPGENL
Chain of PCTK2 (Q00537 whole entry): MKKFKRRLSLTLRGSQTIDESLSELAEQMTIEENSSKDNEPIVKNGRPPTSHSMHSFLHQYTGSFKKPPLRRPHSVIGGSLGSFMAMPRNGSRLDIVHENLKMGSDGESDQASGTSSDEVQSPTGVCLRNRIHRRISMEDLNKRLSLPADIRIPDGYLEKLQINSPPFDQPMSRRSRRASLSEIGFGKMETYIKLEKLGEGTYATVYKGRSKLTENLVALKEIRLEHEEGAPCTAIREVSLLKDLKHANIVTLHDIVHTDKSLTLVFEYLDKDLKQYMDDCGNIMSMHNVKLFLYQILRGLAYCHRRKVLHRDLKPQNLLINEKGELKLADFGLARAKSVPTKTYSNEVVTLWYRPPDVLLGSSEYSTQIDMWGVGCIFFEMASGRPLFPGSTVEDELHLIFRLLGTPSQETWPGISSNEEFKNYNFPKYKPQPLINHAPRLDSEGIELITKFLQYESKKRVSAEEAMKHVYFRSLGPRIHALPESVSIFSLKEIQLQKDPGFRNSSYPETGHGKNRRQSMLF
Chain of CSK (P41240 whole entry): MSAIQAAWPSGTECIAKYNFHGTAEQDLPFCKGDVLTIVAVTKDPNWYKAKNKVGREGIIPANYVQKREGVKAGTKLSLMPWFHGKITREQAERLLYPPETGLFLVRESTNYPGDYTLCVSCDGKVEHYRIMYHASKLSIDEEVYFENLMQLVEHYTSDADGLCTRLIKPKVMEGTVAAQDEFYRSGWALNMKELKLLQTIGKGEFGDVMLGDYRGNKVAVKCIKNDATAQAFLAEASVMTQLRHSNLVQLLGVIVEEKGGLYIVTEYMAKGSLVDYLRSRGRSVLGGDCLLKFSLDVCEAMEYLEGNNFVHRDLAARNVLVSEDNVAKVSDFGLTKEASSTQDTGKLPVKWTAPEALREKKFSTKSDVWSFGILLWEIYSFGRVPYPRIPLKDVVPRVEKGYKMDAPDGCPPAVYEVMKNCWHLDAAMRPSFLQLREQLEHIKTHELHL

With `CN1CCN(c2ccc(Nc3ncc(C#N)c(Nc4ccccc4C(N)=O)n3)cc2)CC1.Cl` [TCMDC-134116], the Kd was 1630 nM on ACVR1B; 131 nM and 139 nM on CAMKK2; 2470 nM on CSK; 107 nM and 85.4 nM on FYN; 174 nM at LATS1; 269 nM and 118 nM at NEK2. The Kd at PCTK2 was 57.7 nM and 83.5 nM.

In the case of `Cl.NCC1(c2nc(-c3ccc(Cl)c(O)c3)c(-c3ccncc3)[nH]2)CCCCC1` [TCMDC-141154], the Kd at ACVR1B is 240 nM; on CSK, 2650 nM; on FYN, 67.6 nM and 60.5 nM; at LATS1, 911 nM.

Turning to `CN(C)CC(O)COc1ccc(Nc2ncc([N+](=O)[O-])c(Nc3ccccc3O)n2)cc1.O=C(O)C(F)(F)F` (centres unmarked) [TCMDC-141399], the Kd at CAMKK2 is 1940 nM and 2040 nM; on NEK2 it was 3060 nM and 1980 nM; on PCTK2, 1140 nM and 1060 nM.
